# Experimental data as given in patent US12357636B2 (Urovant Sciences GmbH, priority 2018, dated 2025).
# Read-outs that look alike come from different tables or passages of the source.
# How the values were obtained:
# [1] = system: men and women with overactive bladder; assay: Phase 3 study vibegron 75 mg: safety and tolerability; format: in vivo, human; settings: 75 mg QD, 12 weeks
# Method: Safety analyses were conducted using the SAF and summarized by treatment group as treated. The treatment-emergent period is defined as the period of time from the first dose date of the double blinded Study Treatment through 28 days after the last dose of Study Treatment, or the date of initiation of another investigational agent or surgical intervention or rollover to the extension study, whichever occurs first. Safety was assessed through summaries of adverse events, the frequency of treatment discontinuations due to adverse events, and clinical laboratory evaluations.
# [2] = dose-Cmax and dose-AUC models, log-log regression and simulations for 75 mg; parameters: species or system human
# Method: In order to contextualize PK parameters of a 75 mg dose, dose-Cmax and dose-AUC models were created using data from Phase 1 studies.
# CYP3A4 = CYP3A4 (Homo sapiens, UniProt P08684); assay: in vitro CYP metabolism; format: in vitro ADME
# [3] = system: men and women with overactive bladder; assay: Phase 3 study vibegron 75 mg: post-void residual urine volume (Tables 26-28); format: in vivo, human
# Source text: The risk of acute urinary retention or morbidities related to an increase in Post-Void Residual (PVR) is a concern with antimuscarinic therapy that promotes smooth muscle relaxation by inhibiting acetylcholine-induced smooth muscle contraction. If, during contraction, the bladder cannot generate enough pressure to overcome the outlet resistance in the urethra, either because of poor detrusor contractility or profound obstruction (most commonly from BPH), acute urinary retention or incomplete emptying of the bladder may result.
# The volume of urine that remains in the bladder after voiding (PVR) is an objective measurement that may serve as a proxy for impaired ability to void.
# PVR were performed via ultrasound at the visits indicated in the Schedule of Activities.
# In addition, the data on the Post Void Residual Urine Volume (PVR) in all males and males with a medical history of BPH is shown in Tables 26 and 27, respectively.
# healthy volunteers = assay: thorough QT study: RR interval and blood pressure (Table 19); format: in vivo, human
# [4] = effect of food on oral absorption; format: in vivo, human
# [5] = PK in moderate hepatic impairment, single dose 100 mg; format: in vivo, human; settings: single 100 mg, healthy matched control subjects
# [6] = single rising oral dose Phase 1 pharmacokinetics; format: in vivo, human
# Method: The steady state AUC geometric mean accumulation ratios were ˜2 in young male subjects and ˜2.8 in elderly subjects (male and female).
# All subjects were healthy adults. […] Systemic exposures were greater than dose proportional up to 600 mg.
# Although exposures were similar in middle-aged males when compared to young males, plasma concentrations were higher in elderly compared to middle-aged and young subjects. […] Furthermore, the steady state AUC geometric mean accumulation ratios were ˜2 in young males and ˜2.8 in the elderly.
# β2-AR = β2-AR (Homo sapiens, UniProt P07550); assay: competition binding assay, membranes with recombinant β2-AR
# [7] = system: patients with overactive bladder
# Source text: A placebo group was included in the main study, and a group that received tolterodine monotherapy was included in the main study and in the extension.
# [8] = Males with medical history of BPH
# [9] = all males, vibegron 75 mg or tolterodine ER 4 mg QD
# [10] = 150 mg multiple doses, Day 14, middle-aged females
# [11] = single 50 mg, Japanese young males
# [12] = single 50 mg, non-Japanese young males
# CYP3A4, sequence (P08684 whole entry): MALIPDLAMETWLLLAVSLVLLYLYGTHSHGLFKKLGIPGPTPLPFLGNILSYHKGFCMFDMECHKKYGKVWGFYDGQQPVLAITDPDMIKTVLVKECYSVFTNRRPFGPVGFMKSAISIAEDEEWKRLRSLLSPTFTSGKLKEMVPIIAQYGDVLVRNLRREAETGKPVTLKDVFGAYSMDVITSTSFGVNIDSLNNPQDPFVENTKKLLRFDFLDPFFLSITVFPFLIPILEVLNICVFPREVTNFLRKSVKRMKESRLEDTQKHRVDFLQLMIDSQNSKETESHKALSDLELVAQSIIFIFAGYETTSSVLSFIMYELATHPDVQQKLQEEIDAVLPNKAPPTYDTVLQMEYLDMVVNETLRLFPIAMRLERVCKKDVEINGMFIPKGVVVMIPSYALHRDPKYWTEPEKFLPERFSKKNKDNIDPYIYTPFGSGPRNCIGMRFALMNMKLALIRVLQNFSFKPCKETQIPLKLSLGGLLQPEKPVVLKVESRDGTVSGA
# β2-AR, sequence (P07550 whole entry): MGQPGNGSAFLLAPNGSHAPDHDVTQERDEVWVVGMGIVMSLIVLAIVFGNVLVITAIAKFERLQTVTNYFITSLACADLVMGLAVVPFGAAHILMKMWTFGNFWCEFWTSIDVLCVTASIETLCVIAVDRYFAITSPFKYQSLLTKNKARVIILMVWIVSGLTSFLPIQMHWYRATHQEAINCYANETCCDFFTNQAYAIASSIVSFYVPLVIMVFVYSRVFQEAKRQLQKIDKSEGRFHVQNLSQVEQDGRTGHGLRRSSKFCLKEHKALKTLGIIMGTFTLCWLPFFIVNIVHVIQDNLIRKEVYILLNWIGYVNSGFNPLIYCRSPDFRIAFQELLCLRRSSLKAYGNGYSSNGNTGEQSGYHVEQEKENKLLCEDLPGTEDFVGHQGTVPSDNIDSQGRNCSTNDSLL
smiles,measurement,setting,value
"O=C(Nc1ccc(C[C@@H]2CC[C@H]([C@H](O)c3ccccc3)N2)cc1)[C@@H]1CCc2nccc(=O)n21 [Vibegron, (6S)—N-[4-[[(2S,5R)-5-[(R)-hydroxy(phenyl)methyl]pyrrolidin-2-yl]methyl]phenyl]-4-oxo-7,8-dihydro-6H-pyrrolo[1,2-a]pyrimidine-6-carboxamide]",tolerability,[1],favorable
same,AUC of 75 mg lower than 200 mg single dose,[2],~2 fold
same,AUC of 75 mg lower than 400 mg single dose,[2],~6 fold
same,Cmax of 75 mg lower than 200 mg single dose,[2],approximately 3.3 fold
same,Cmax of 75 mg lower than 400 mg single dose,[2],~9.2 fold
same,increase in Cmax with increase in dose from 50 to 100 mg,[2],~4 fold
same,reduction in Cmax on decreasing dose from 100 mg to 75 mg,[2],~40%
same,predominant CYP responsible for in vitro metabolism,CYP3A4,CYP3A4
same,PVR Categories at Week 12: <100 mL,[3]; [8],96.6%
same,PVR Categories at Week 12: ≥100 mL to <200 mL,[3]; [8],0%
same,PVR Categories at Week 12: ≥200 mL to <350 mL,[3]; [8],3.4%
same,PVR Categories at Week 12: ≥350 mL,[3]; [8],0%
same,PVR Mean Change from Baseline at Week 12 (SD),[3]; [8],−3.4 (42.45) mL
same,PVR Mean Change from Baseline at Week 12 (SD),[3]; [9],2.2 (48.45) mL
same,PVR category <100 mL at Week 12,[3]; [9],89.7%
same,PVR category ≥100 mL to <200 mL at Week 12,[3]; [9],7.7%
same,PVR category ≥200 mL to <350 mL at Week 12,[3]; [9],2.6%
same,PVR category ≥350 mL at Week 12,[3]; [9],0
same,PVR Categories at Week 12: <100 mL,[3]; study population as a whole,89.9%
same,PVR Categories at Week 12: ≥100 mL to <200 mL,[3]; study population as a whole,3.5%
same,PVR Categories at Week 12: ≥200 mL to <350 mL,[3]; study population as a whole,0.6%
same,PVR Categories at Week 12: ≥350 mL,[3]; study population as a whole,0%
same,PVR Mean Change from Baseline at Week 12 (SD),[3]; study population as a whole,0.4 (38.27) mL
same,Maximum Mean Placebo Corrected Change from Baseline Diastolic BP (90% CI),healthy volunteers; single dose 200 mg,2.42 mmHg
same,Maximum Mean Placebo Corrected Change from Baseline RR interval (90% CI),healthy volunteers; single dose 200 mg,-84.36 ms
same,Maximum Mean Placebo Corrected Change from Baseline Systolic BP (90% CI),healthy volunteers; single dose 200 mg,2.20 mmHg
same,Maximum Mean Placebo Corrected Change from Baseline Diastolic BP (90% CI),healthy volunteers; single dose 400 mg,3.99 mmHg
same,Maximum Mean Placebo Corrected Change from Baseline RR interval (90% CI),healthy volunteers; single dose 400 mg,-162.45 ms
same,Maximum Mean Placebo Corrected Change from Baseline Systolic BP (90% CI),healthy volunteers; single dose 400 mg,3.97 mmHg
same,mean Cmax with food compared to fasted state,"[4]; 150 mg multiple doses, Day 1",59%
same,mean AUC0-24 with food compared to fasted state,"[4]; 150 mg multiple doses, Day 1, middle-aged and elderly females",~42%
same,mean AUC0-24 with food compared to fasted state,"[4]; 150 mg multiple doses, Day 14",~20%
same,mean Cmax with food compared to fasted state,"[4]; 150 mg multiple doses, Day 14",43%
same,reduction in mean AUC0-24hr with food vs fasted,[4]; [10],20%
same,reduction in mean Cmax with food vs fasted,[4]; [10],47%
same,Tmax,"[4]; male, human, plasma, oral, single 50 mg, non-Japanese young males, read-out: delay in Tmax with high-fat meal",~1 h
same,reduction in AUC0-inf with standard Japanese breakfast,[4]; [11],37%
same,reduction in Cmax with standard Japanese breakfast,[4]; [11],52%
same,reduction in AUC0-inf with high-fat meal vs fasted,[4]; [12],46%
same,reduction in Cmax with high-fat meal vs fasted,[4]; [12],67%
same,Apparent terminal t1/2,[5],92.5 (9.37%) hr
same,"exposure increase, young Japanese vs non-Japanese males",[6]; single dose,< 2 fold
same,dose proportionality of mean Cmax and AUC,[6]; up to 400 mg,greater than dose-proportional
same,binding to β2-AR,β2-AR,does not bind
same,Accidental overdose,[7]; 3 mg QD,3 (2.1) n (%)
same,Accidental overdose,[7]; 15 mg QD,6 (4.5) n (%)
same,Accidental overdose,[7]; 50 mg QD,4 (2.7) n (%)
same,Accidental overdose,[7]; 100 mg QD,11 (4.2) n (%)
same,≥1 AE,[7]; 100 mg QD,107 (41.0) n (%)
same,frequency of injuries,"[7]; human, in vivo",0.9%
